Assay results reported in patent publication US20260144788A1, “COMPOUND FOR SHP2 PROTEIN DEGRADATION AND MEDICAL USES THEREOF” (UBIX THERAPEUTICS, INC., priority 2022, published 2026).

Target: T1, SHP2 protein (Homo sapiens, UniProt Q06124)
T1 sequence (Q06124 1-593): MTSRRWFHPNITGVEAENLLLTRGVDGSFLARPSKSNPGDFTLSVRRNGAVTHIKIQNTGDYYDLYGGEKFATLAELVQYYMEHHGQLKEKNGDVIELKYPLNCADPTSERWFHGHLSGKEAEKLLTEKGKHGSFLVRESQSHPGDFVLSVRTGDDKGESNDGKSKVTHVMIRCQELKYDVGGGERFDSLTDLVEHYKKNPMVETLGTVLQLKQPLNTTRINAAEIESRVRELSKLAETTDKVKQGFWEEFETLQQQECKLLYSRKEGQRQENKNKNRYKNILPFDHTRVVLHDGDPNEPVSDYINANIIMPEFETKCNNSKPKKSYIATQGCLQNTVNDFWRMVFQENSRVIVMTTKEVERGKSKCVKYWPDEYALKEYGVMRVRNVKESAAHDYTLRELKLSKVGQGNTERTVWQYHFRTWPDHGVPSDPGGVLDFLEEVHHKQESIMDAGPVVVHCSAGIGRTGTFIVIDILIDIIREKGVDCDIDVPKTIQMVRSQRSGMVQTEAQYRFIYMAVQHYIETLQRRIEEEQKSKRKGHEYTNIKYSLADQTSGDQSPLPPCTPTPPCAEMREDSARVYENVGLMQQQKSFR
Experiment: Measurement of SHP2 protein degradation in MV-4-11 cells (western blotting)
Format: cell-based
Parameters: endogenous in cells
Conditions: harvested after 24 hours
Method: MV-4-11 cells were treated with the synthesized Example compounds, and the amount of SHP2 protein present in the cells was measured using western blotting detection. The protocol for the experiment conducted using MV-4-11 cells is as follows.
[Culture] MV-4-11 cells were resuspended in IMDM MEDIUM (Hyclone, SH30228.01), 5% FBS (Hyclone, SV30207.02), 1% Penicillin-streptomycin (Welgene, LS 202-02) media and seeded at 1×10^6/mL in 12-well plates (1 mL each).
[Compound treatment]12-well plates were treated as follows. 10 mM stock dissolved in DMSO was serially diluted 1/100 or 1/10 with media, and the compounds were treated to the cells at a final concentration of 0.01, 0.1, 1 μM or 0.001, 0.01, 0.1 μM, and harvested after 24 hours. For the negative control group, DMSO diluted 1/100 or 1/1000 in media was added (3 μL DMSO+297 μL media or 1 μL DMSO+999 μL media).
[Harvest] Each well was pipetted with a 1 mL pipette, collected in a 1.5 mL microtube, and centrifuged (500 g, 5 min, 4° C.). The supernatant was removed, washed with PBS, and centrifuged again (500 g, 5 min, 4° C.). The supernatant was removed and a pellet was prepared.
[Cell lysis and sample preparation] Lysis buffer was prepared as follows. RIPA buffer (Biosesang, RC2038-050-00)+0.5 mM PMSF (SIGMA, P7626)+1× Protease/Phosphatase Inhibitor (Cell signaling, 5872S) were added at 50 μL per tube and incubated on ice for 30 minutes (vortexed at 0 and 30 minutes). After sonication (10 sec pulse, 30 sec rest, 5 cycles, 70% amplification) and centrifugation (15,000 g, 15 min, 4° C.), only the supernatant was transferred to a microtube. RIPA buffer 7.5 μL and sample 2.5 μL were added to a 96-well plate to dilute to 1/4, and then BCA Protein Assay Kit (iNtRON, 21071) A and B were mixed in a 50:1 ratio and 200 μL each was added. After that, the plate was incubated at 37° C. for 30 minutes and left at room temperature for 10 minutes. After shaking for 10 seconds with a SYNERGY H1 microplate reader from BioTek, the absorbance was measured at 562 nm. The protein was quantified using the measured value to prepare a sample, which was then incubated at 70° C. for 10 minutes. The sample buffer used at this time is a mixture of NuPAGE or Bolt 4× sample buffer (Invitrogen) and each 10× sample reducing agent according to the gel to be used, and RIPA buffer was used for protein dilution.
[Western blotting detection] Equal amounts of samples were loaded onto NuPAGE or Bolt Bis-tris 4-12% gradient gels and run (200 V, 35 min). This was transferred to […] NC membranes using Trans-blot Turbo (BIO-RAD) (1.3 A constant, 25 V limit, 15 min), and was blocked at room temperature for 1 hour with Skim milk or Intercept Blocking Buffer (LI-COR, 927-60001):0.1% TBST=1:1. Anti-SHPTP2 Mouse (1:500 in 2% BSA/0.2% TBST, size: 70 kDa, Santacruz sc-7384) was incubated overnight at 4° C., and Anti-GAPDH Rabbit (1:2,000 in 2% BSA/0.2% TBST, size: 37 kDa, CST #2118) was incubated at room temperature for 1.5 hours or 3 hours. After washing three times for 5 minutes each with 0.2% TBST washing buffer, secondary antibodies Anti-Mouse IgG (1:5,000 in 2% BSA/0.2% TBST, CST) and IRDye® 680RD Goat anti-Rabbit IgG Secondary Antibody (1:10,000 in 2% BSA/0.2% TBST, LI-COR 926-68071) were added, and incubated on a rocker at room temperature for 45 minutes. The resultants were washed five times for 5 minutes each with 0.2% TBST washing buffer, and detected using LI-COR's Odyssey. GAPDH was detected with a 700 nm channel, and SHPTP2 was detected using SuperSignal West Pico PLUS Chemiluminescent Substrate.

## Cc1ncsc1-c1ccc([C@H](C)NC(=O)[C@@H]2C[C@@H](O)CN2C(=O)[C@@H](NC(=O)C2(F)CC2)C(C)(C)C)c(OC2CCN(C(=O)C3CCN(c4nccc(Sc5cnc(N6CCC(C)(CN)CC6)cn5)c4Cl)CC3)CC2)c1 [Example 86, (2S,4R)—N—((S)-1-(2-((1-(1-(4-((5-(4-(aminomethyl)-4-methylpiperidin-1-yl)pyrazin-2-yl)thio)-3-chloropyridin-2-yl)piperidine-4-carbonyl)piperidin-4-yl)oxy)-4-(4-methylthiazol-5-yl)phenyl)ethyl)-1-((S)-2-(1-fluorocyclopropane-1-carboxamido)-3,3-dimethylbutanoyl)-4-hydroxypyrrolidine-2-carboxamide]
0.01 μM
  SHP2% degradation: 81.9%
0.1 μM
  SHP2% degradation: 99.9%

## Cc1ncsc1-c1ccc(CNC(=O)[C@@H]2C[C@@H](O)CN2C(=O)[C@@H](NC(=O)C2(F)CC2)C(C)(C)C)c(OC2CCN(C(=O)[C@H]3CC[C@H](Nc4nccc(Sc5cnc(N6CCC(C)(CN)CC6)cn5)c4Cl)CC3)CC2)c1 [Example 62, (2S,4R)—N-(2-((1-((1R,4S)-4-((4-((5-(4-(aminomethyl)-4-methylpiperidin-1-yl)pyrazin-2-yl)thio)-3-chloropyridin-2-yl)amino)cyclohexanecarbonyl)piperidin-4-yl)oxy)-4-(4-methylthiazol-5-yl)benzyl)-1-((S)-2-(1-fluorocyclopropane-1-carboxamido)-3,3-dimethylbutanoyl)-4-hydroxypyrrolidine-2-carboxamide]
0.01 μM
  SHP2% degradation: 75.6%
0.1 μM
  SHP2% degradation: 98.9%

## Cc1ncsc1-c1ccc(CNC(=O)[C@@H]2C[C@@H](O)CN2C(=O)[C@@H](NC(=O)C2(F)CC2)C(C)(C)C)c(OC2CCN(C(=O)C3(C)CCN(c4nccc(Sc5cnc(N6CCC(C)(CN)CC6)cn5)c4Cl)CC3)CC2)c1 [Example 68, (2S,4R)—N-(2-((1-(1-(4-((5-(4-(aminomethyl)-4-methylpiperidin-1-yl)pyrazin-2-yl)thio)-3-chloropyridin-2-yl)-4-methylpiperidine-4-carbonyl)piperidin-4-yl)oxy)-4-(4-methylthiazol-5-yl)benzyl)-1-((S)-2-(1-fluorocyclopropane-1-carboxamido)-3,3-dimethylbutanoyl)-4-hydroxypyrrolidine-2-carboxamide]
0.01 μM
  SHP2% degradation: −22.1%
0.1 μM
  SHP2% degradation: 95.7%

## Cc1ncsc1-c1ccc(CNC(=O)[C@@H]2C[C@@H](O)CN2C(=O)[C@@H](NC(=O)C2(F)CC2)C(C)(C)C)c(OCCN2CCN(C(=O)CNc3cccc(Sc4cnc(N5CCC(C)(CN)CC5)cn4)c3Cl)CC2)c1 [Example 4, (2S,4R)—N-(2-(2-(4-((3-((5-(4-(aminomethyl)-4-methylpiperidin-1-yl)pyrazin-2-yl)thio)-2-chlorophenyl)glycyl)piperazin-1-yl)ethoxy)-4-(4-methylthiazol-5-yl)benzyl)-1-((S)-2-(1-fluorocyclopropane-1-carboxamido)-3,3-dimethylbutanoyl)-4-hydroxypyrrolidine-2-carboxamide]
0.01 μM
  SHP2% degradation: 42.9%
0.1 μM
  SHP2% degradation: 95.6%

## Cc1ncsc1-c1ccc(CNC(=O)[C@@H]2C[C@@H](O)CN2C(=O)[C@@H](NC(=O)C2(F)CC2)C(C)(C)C)c(OCCN2CCN(C(=O)C3CCN(c4nccc(Sc5cnc(N6CCC(C)(CN)CC6)cn5)c4Cl)CC3)CC2)c1 [Example 54, (2S,4R)—N-(2-(2-(4-(1-(4-((5-(4-(aminomethyl)-4-methylpiperidin-1-yl)pyrazin-2-yl)thio)-3-chloropyridin-2-yl)piperidine-4-carbonyl)piperazin-1-yl)ethoxy)-4-(4-methylthiazol-5-yl)benzyl)-1-((S)-2-(1-fluorocyclopropane-1-carboxamido)-3,3-dimethylbutanoyl)-4-hydroxypyrrolidine-2-carboxamide]
0.01 μM
  SHP2% degradation: 69.4%
0.1 μM
  SHP2% degradation: 99.3%
